Test results reported in patent US9695155B2, “Herbicidal substituted pyrimidinyloxy benzene compounds” (E. I. DU PONT DE NEMOURS AND COMPANY, priority 2013, dated 2017).

What was measured:
pigweed [1] = test: Test A preemergence; format: in vivo, Amaranthus retroflexus; details: 0 to 100 scale where 0 is no effect and 100 is complete control
Procedure, shortened: (§1)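 Injury scores run from 0, no effect, to 100, complete control, judged by eye against untreated plants roughly 10 days after treatment. Chemicals carried a surfactant in a non-phytotoxic solvent and went onto loam–sand soil preemergence or onto one- to two-leaf seedlings postemergence.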

ragweed = test: Test C postemergence; format: in vivo, Ambrosia elatior; details: for Plant response rating, Ragweed: scale 0 to 100 (0 no effect, 100 complete control)
Procedure, shortened: (§2)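 Sown in loam/sand → sprayed pre-emergence; or grown to 1–4 leaves in peat mix → sprayed post-emergence. Same solvent/surfactant formulation both ways. Greenhouse 13–15 d. Score 0–100 visual.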

giant foxtail [2] = test: Test A preemergence; format: in vivo, Setaria faberii; details: 0 to 100 scale where 0 is no effect and 100 is complete control
Procedure, shortened: as §1

pigweed [3] = test: Test A postemergence; format: in vivo, Amaranthus retroflexus
Procedure, shortened: as §1

chickweed = test: Test C postemergence; format: in vivo, Stellaria media; details: for Plant response rating, Chickweed: scale 0 to 100 (0 no effect, 100 complete control)
Procedure, shortened: as §2

wheat, winter = test: Test C postemergence; format: in vivo, Triticum aestivum; details: for Plant response rating, Wheat: scale 0 to 100 (0 no effect, 100 complete control)
Procedure, shortened: as §2

soybean = test: Test C postemergence; format: in vivo, Glycine max; details: for Plant response rating, Soybean: scale 0 to 100 (0 no effect, 100 complete control)
Procedure, shortened: as §2

giant foxtail [4] = test: Test A postemergence; format: in vivo, Setaria faberii
Procedure, shortened: as §1

velvetleaf = test: Test C postemergence; format: in vivo, Abutilon theophrasti; details: for Plant response rating, Velvetleaf: scale 0 to 100 (0 no effect, 100 complete control)
Procedure, shortened: as §2

giant foxtail [5] = test: Test C postemergence; format: in vivo, Setaria faberii; details: for Plant response rating, Foxtail, Giant: scale 0 to 100 (0 no effect, 100 complete control)
Procedure, shortened: as §2

wild oat = test: Test C postemergence; format: in vivo, Avena fatua; details: for Plant response rating, Oat, Wild: scale 0 to 100 (0 no effect, 100 complete control)
Procedure, shortened: as §2

[6] = 31 g ai/ha, visual, approximately 10 days
[7] = 16 g ai/ha, postemergence, 0 is no effect, 100 is complete control
[8] = 125 g ai/ha, postemergence, visual rating
[9] = 31 g ai/ha, 0 to 100 scale, 0 no effect, 100 complete control
[10] = 125 g ai/ha, 0 to 100 scale where 0 is no effect and 100 is complete control

N#Cc1cnn(-c2c(Br)cccc2Oc2ncc(Cl)cn2)c1 [Compound 140]
Plant response rating, Pigweed (pigweed [1]; [6]): 90 | Plant response rating, Pigweed (pigweed [1]; 125 g ai/ha): 100 | Plant response rating (0 to 100), Ragweed (ragweed; [7]): 25 | Plant response rating, Ragweed (ragweed; [8]): 75 | Plant response rating, Ragweed (ragweed; Postemergence, 62 g ai/ha): 60 | Plant response rating, Foxtail, Giant (giant foxtail [2]; [6]): 50 | Plant response rating, Foxtail, Giant (giant foxtail [2]; 125 g ai/ha): 100 | Plant response rating, Pigweed (pigweed [3]; [9]): 90 | Pigweed plant response rating (pigweed [3]; [10]): 100 | Plant response rating (0 to 100), Chickweed (chickweed; [7]): 30 | Plant response rating, Chickweed (chickweed; [8]): 70 | Plant response rating, Chickweed (chickweed; Postemergence, 62 g ai/ha): 45 | Plant response rating (0 to 100), Wheat (wheat, winter; [7]): 0 | Plant response rating, Wheat (wheat, winter; [8]): 10 | Plant response rating, Wheat (wheat, winter; Postemergence, 62 g ai/ha): 0 | Plant response rating (0 to 100), Soybean (soybean; [7]): 25 | Plant response rating, Soybean (soybean; [8]): 75 | Plant response rating, Soybean (soybean; Postemergence, 62 g ai/ha): 65 | Plant response rating, Foxtail, Giant (giant foxtail [4]; [9]): 30 | Foxtail, Giant plant response rating (giant foxtail [4]; [10]): 90 | Plant response rating (0 to 100), Velvetleaf (velvetleaf; [7]): 5 | Plant response rating, Velvetleaf (velvetleaf; [8]): 60 | Plant response rating, Velvetleaf (velvetleaf; Postemergence, 62 g ai/ha): 45 | Plant response rating (0 to 100), Foxtail, Giant (giant foxtail [5]; [7]): 5 | Plant response rating, Foxtail, Giant (giant foxtail [5]; [8]): 20 | Plant response rating, Foxtail, Giant (giant foxtail [5]; Postemergence, 62 g ai/ha): 20 | Plant response rating (0 to 100), Oat, Wild (wild oat; [7]): 0 | Plant response rating, Oat, Wild (wild oat; [8]): 5 | Plant response rating, Oat, Wild (wild oat; Postemergence, 62 g ai/ha): 0
